Reference: ChEMBL document CHEMBL1201862, “PubChem BioAssay data set” (2004)
The source made the active and inactive calls.

Assays:
[1] = Luminescence Cell-Based Dose Confirmation HTS to Identify Activators of 5'UTR Stem-Loop Driven Alpha-Synuclein mRNA Translation in H4 Neuroglioblastoma Cells. [Related pubchem assays: 1829 (Project Summary), 1814 (Primary HTS)]; type: functional
H4 = test: Luminescence Cell-Based Dose Response HTS to Identify Activators of 5'UTR Stem-Loop Driven Prion Protein mRNA Translation in H4 Neuroglioblastoma Cells. [Related pubchem assays: 1829 (Project Summary), 1814 (Primary HTS)]; type: functional; settings: Homo sapiens
[2] = Luminescence Cell-Based Dose Response HTS to Identify Activators of Luciferase Translation or Activity in H4 […] Cells. [Related pubchem assays: 1829 (Project Summary), 1814 (Primary HTS)]; type: functional
[3] = biological target: T1, Calpain-2 catalytic subunit (Sus scrofa, UniProt P43367); test: pig calpain II inhibitor potency, dose response, biochemical, fluorogenic peptide substrate (AID 1420); type: functional
T1 sequence (P43367 whole entry): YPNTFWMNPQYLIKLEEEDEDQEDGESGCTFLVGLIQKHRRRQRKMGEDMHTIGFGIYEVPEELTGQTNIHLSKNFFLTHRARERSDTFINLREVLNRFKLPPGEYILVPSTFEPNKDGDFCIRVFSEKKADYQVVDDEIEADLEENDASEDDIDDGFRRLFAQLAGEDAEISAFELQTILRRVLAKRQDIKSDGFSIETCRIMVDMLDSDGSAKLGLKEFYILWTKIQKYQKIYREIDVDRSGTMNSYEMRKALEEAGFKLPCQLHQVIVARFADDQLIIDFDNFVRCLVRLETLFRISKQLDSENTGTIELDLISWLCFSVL

[4] = biological target: T2, Short transient receptor potential channel 4 (Mus musculus, UniProt Q9QUQ5); test: mouse TRPC4 channel activators, dose response, cell-based, HEK293 TRPC4/mu-opioid, Fluo-4 calcium (AID 434937); type: functional
T2 sequence (Q9QUQ5 whole entry): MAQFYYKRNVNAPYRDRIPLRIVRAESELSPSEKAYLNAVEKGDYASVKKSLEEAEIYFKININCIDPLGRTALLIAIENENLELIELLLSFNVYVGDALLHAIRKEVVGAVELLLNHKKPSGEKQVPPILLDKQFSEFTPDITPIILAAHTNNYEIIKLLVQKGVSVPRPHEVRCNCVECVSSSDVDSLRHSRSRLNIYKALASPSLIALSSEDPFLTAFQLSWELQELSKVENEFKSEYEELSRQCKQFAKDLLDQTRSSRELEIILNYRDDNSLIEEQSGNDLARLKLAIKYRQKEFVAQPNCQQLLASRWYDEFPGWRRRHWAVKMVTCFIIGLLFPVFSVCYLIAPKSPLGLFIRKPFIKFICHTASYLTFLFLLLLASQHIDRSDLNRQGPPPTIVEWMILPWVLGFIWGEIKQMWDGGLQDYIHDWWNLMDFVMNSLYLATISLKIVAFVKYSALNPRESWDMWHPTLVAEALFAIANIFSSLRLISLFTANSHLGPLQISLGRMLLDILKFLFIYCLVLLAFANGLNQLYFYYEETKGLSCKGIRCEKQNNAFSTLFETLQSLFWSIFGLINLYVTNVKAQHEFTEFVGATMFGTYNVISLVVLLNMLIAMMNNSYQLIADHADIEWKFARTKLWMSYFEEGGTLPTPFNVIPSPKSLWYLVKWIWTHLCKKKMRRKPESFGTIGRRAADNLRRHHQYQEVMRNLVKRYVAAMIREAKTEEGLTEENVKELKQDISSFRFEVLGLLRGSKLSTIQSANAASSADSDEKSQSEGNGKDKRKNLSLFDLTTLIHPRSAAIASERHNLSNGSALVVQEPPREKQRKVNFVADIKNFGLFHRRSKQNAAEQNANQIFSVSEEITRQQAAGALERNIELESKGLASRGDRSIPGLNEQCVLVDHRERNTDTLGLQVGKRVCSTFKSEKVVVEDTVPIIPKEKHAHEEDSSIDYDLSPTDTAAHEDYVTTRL

[5] = HEp-2 cell cytotoxicity, dose response, cytotoxicity control for RSV inhibitor project, HTS (AID 2410); type: functional; settings: human respiratory syncytial virus
[6] = cytotoxicity toward NIH3T3 fibroblasts, dose response, counter-screen, cell-based, ATP luminescence, mouse fibroblasts (AID 2010); type: functional;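 also: cells exposed to compound for about 90 hours before reading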
[7] = inhibitors of intracellular T. cruzi replication, confirmation, NIH3T3 host cells, beta-gal luminescence (AID 2044); type: functional, cell-based;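 also: intracellular parasites grown in NIH/3T3 mouse fibroblasts as host cells; luminescent beta-galactosidase reporter signal from transgenic T. cruzi replicating inside host cells; inhibitors lower the luminescence signal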
[8] = biological target: T3, Heat shock factor protein 1 (Mus musculus, UniProt P38532); test: inhibition of MG132-induced HSE-luciferase signal, confirmation, cell-based, NIH3T3, luminescence, dose retest (AID 2382); type: functional;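 also: NIH3T3 fibroblasts with HSF1-driven luciferase reporter stressed by proteasome inhibitor MG132; luminescence from HSF1-driven luciferase expression after 8 hours of MG132 stress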
T3 sequence (P38532 whole entry): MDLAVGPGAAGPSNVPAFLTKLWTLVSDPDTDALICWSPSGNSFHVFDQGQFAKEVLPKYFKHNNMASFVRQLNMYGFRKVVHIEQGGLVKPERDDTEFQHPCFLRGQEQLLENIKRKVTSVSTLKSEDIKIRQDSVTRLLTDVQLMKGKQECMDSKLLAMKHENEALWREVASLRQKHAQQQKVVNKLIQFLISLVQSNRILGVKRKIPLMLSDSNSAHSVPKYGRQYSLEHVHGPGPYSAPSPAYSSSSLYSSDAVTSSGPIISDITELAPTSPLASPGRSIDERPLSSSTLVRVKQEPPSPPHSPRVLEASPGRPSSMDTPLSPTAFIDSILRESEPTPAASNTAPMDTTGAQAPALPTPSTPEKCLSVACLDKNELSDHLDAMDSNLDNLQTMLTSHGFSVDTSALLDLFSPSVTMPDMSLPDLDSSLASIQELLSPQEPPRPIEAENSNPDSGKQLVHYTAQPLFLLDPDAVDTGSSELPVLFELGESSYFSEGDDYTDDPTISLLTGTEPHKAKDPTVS

H9c2 = test: cells; type: functional, cell-based; settings: Rattus norvegicus, H9c2, Myocardium
[9] = control 3'UTR Renilla luciferase suppression, dose response, counter-screen for Shn3 inhibitor project, cell-based, Clone20-Shn3RL, cherry-picked (AID 624133); type: functional
[10] = Shn3 3'UTR reporter inhibitors, dose response, cell-based, Clone20 osteoblasts, firefly luciferase, cherry-picked (AID 624132); type: functional;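 also: firefly luciferase luminescence from reporter carrying the Shn3 3'UTR in osteoblasts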
[11] = HepG2 cell cytotoxicity, dose response, cytotoxicity control for Shn3 inhibitor project, CellTiter-Glo, cherry-picked (AID 624134); type: functional, cell-based
cells = type: functional
[12] = system: Streptococcus sp. 'group A'; test: growth inhibition of control SK(-) GAS strain, dose response, counter-screen for streptokinase expression inhibitor project, luminescence, kanamycin, BacTiterGlo, confirmation (AID 1900); type: functional, organism-based
Streptococcus = test: Group A Streptococcus viability loss, dose response, counter-screen for streptokinase expression inhibitor project, luminescence, BacTiterGlo (AID 1915); type: functional, organism-based;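 also: potency for reduction of bacterial viability or growth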
Streptokinase A = biological target: T4, Streptokinase A (Streptococcus pyogenes serotype M1, UniProt P10520); test: S. pyogenes streptokinase expression inhibitors, potency, dose response, plasminogen activation absorbance, OD405 (AID 1914); type: functional, Streptococcus pyogenes M1 GAS;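 also: secreted streptokinase activity via plasminogen activation per viability signal from cell pellet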
T4 sequence (P10520 whole entry): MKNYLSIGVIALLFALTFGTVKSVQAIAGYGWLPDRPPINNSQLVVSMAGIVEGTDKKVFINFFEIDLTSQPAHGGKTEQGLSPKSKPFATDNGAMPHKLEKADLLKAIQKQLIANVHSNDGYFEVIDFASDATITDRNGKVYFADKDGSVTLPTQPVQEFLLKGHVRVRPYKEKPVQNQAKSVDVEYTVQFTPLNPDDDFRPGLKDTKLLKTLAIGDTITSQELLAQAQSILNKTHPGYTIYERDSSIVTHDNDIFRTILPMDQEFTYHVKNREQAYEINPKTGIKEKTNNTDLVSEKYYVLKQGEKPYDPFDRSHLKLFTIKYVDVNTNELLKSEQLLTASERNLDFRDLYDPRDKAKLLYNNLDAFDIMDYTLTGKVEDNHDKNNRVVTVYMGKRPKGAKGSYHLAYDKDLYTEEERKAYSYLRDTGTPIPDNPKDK

[13] = inhibitors of clade B AD8 Env fusion, dose response, cell-based, cherry-pick (AID 652062); type: functional;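 also: luciferase signal from cell-cell fusion driven by HIV-1 clade B AD8 Env; potency is for inhibitors of fusion seen as a drop in luminescence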

## S=C(NCCc1ccccc1)N1CCc2ccccc2C1
[1]
  EC50: 12.2 µM (active)
H4
  EC50: 26.3 µM (active)
[2]
  EC50: 9.54 µM (active)

## O=C(COc1ccc(C(=O)c2ccccc2)cc1)NC1CCCCCC1
[3]
  IC50: 22.9 µM (not active)

## O=C(CCCCn1c(=O)[nH]c2ccccc2c1=O)NC1CCN(Cc2ccccc2)CC1
[4]
  EC50: 0.376 µM (active)

## COc1c2c(cc3c1C(CC(O)Cc1ccccc1)N(C)CC3)OCO2 (stereo unspecified)
[4]
  EC50: 2.99 µM (active)

## COC(=O)c1ccccc1N=Nc1c(O)n[nH]c1N
[4]
  EC50: 2.99 µM (active)
[5]
  CC50: > 50 µM (active)

## Cc1cccc(C)c1N(CC(=O)Nc1cc(Cl)ccc1Oc1ccccc1)S(C)(=O)=O
[3]
  IC50: 2.8 µM (not active)

## COc1ccc(CCn2c(=N)c(C(=O)NCC3CCCO3)cc3c(=O)n4cccc(C)c4nc32)cc1 (stereo unspecified)
[6]
  EC50: > 30 µM (not active)
[1]
  EC50: > 120 µM (not active)
H4
  EC50: > 120 µM (not active)
[7]
  EC50: 1.2 µM (active)
[2]
  EC50: 34.5 µM (active)

## CN1CCN(c2ccc([N+](=O)[O-])c3cccnc23)CC1
[4]
  EC50: 0.004 µM (active)
[8]
  EC50: > 195 µM (not active)

## COc1ccc(CCNc2oc(COc3ccc(F)cc3)nc2C#N)cc1
[3]
  IC50: 9.9 µM (not active)

## O=c1cc(-c2ccncc2)oc2ccccc12
H9c2
  IC50: > 79 µM (inactive)
[5]
  CC50: 36.7 µM (active)

## CCN1C(=O)/C(=C/c2nc3ccccc3c(=O)n2-c2ccc(C)cc2)c2ccccc21
[6]
  EC50: > 60 µM (not active)
[1]
  EC50: 11 µM (active)
H4
  EC50: 49.8 µM (active)
[7]
  EC50: 1.79 µM (active)
[2]
  EC50: > 120 µM (not active)

## CC(OC(=O)Cc1nnc(O)c2ccccc12)C(=O)Nc1ccccc1[N+](=O)[O-] (stereo unspecified)
H9c2
  IC50: > 79 µM (inactive)

## CC1(C)CC2CC(C)(CN2c2ncnc3ccc(Br)cc23)C1 (stereo unspecified)
[9]
  AC50: 0.972 µM (active)
[10]
  AC50: 2.11 µM (active)
[11]
  AC50: 37.2 µM (active)

## CCc1ccc(-c2cc(C(=O)NCc3ccccn3)c3ccccc3n2)cc1
[1]
  EC50: 6.99 µM (active)
H4
  EC50: 11.4 µM (active)
[2]
  EC50: 21.4 µM (active)

## Cn1c(N2CCN(C(=O)Nc3ccc(C(F)(F)F)cc3)CC2)nc2ccccc21
[4]
  EC50: 3.35 µM (active)

## CC(=O)N1N=C(c2ccccc2)CC1c1cn(C)c2ccccc12 (stereo unspecified)
[1]
  EC50: 9.19 µM (active)
H4
  EC50: 53 µM (active)
[2]
  EC50: 10.4 µM (active)

## CCOC(=O)C1CCCN(S(=O)(=O)c2cccs2)C1 (stereo unspecified)
[3]
  IC50: < 0.4 µM (not active)

## COCCCn1c(C)nc2c(c1=O)c1nc3ccccc3nc1n2CCc1ccccc1
H9c2
  IC50: 11.7 µM (active)

## CCOC(=O)c1cn(CC(=O)Nc2cccc(Cl)c2C)nn1
[10]
  AC50: 4.65 µM (active)
[11]
  AC50: > 70 µM (inactive)

## O=C(CCN1CCC(c2cccs2)=N1)c1cccs1
[1]
  EC50: 15.7 µM (active)
H4
  EC50: 15.5 µM (active)
cells
  IC50: 35.8 µM (active)
[2]
  EC50: 17.8 µM (active)

## O=C(Nc1nnc(-c2ccco2)o1)c1ccc2ccccc2c1
[12]
  EC50: 12.8 µM (active)
H9c2
  IC50: > 79 µM (inactive)
Streptococcus
  EC50: > 150 µM (not active)
Streptokinase A
  EC50: > 150 µM (not active)

## Cc1cc(C)n(C(=N)NC(=O)c2ccc([N+](=O)[O-])cc2)n1
[1]
  EC50: 18.9 µM (active)
H4
  EC50: 110 µM (active)
[2]
  EC50: 26.7 µM (active)

## CCOc1ccccc1N(CC(=O)OC)S(=O)(=O)c1ccccc1
[3]
  IC50: 35 µM (not active)

## COc1ccc(OC(=O)c2cnn(-c3ccccc3)c2C)cc1
[1]
  EC50: 9.33 µM (active)
H4
  EC50: 1.93 µM (active)
[2]
  EC50: 1.26 µM (active)

## O=C(CNC(=O)c1nc[nH]c1C(=O)NCC(=O)OCc1ccccc1)OCc1ccccc1
H9c2
  IC50: 41 µM (inactive)

## CN(CC(=O)N1CCCCCC1)S(=O)(=O)c1ccccc1
[1]
  EC50: 15.4 µM (active)
H4
  EC50: 18.1 µM (active)
[2]
  EC50: 20.8 µM (active)

## CCn1c(/C=C/Nc2ccccc2)[n+](CC)c2ccc(C(=O)OCC(F)(F)F)cc21
[3]
  IC50: 6.92 µM (not active)

## O=C(CCSc1ccccc1)NC(=O)COC(=O)C1CCCCC1
[3]
  IC50: 6.64 µM (not active)

## Cc1cccc(NC(S)=NCC(c2ccccc2)N(C)C)c1 (stereo unspecified)
[4]
  EC50: 0.119 µM (active)

## COc1ccc2nc(O)c(CN(Cc3cccnc3)S(=O)(=O)c3ccccc3F)cc2c1
H9c2
  IC50: > 79 µM (inactive)
[8]
  EC50: 6.06 µM (active)

## COc1ccc(NC(=O)c2ccccc2SC)cc1
[3]
  IC50: 8.1 µM (not active)

## O=C(c1c(F)cccc1F)N1CCN(c2ncc(Br)cn2)CC1
[4]
  EC50: 0.596 µM (active)

## CN(Cc1ccc(OC(F)F)cc1)C(=O)c1cccc(S(=O)(=O)N2CCN(c3ccccc3)CC2)c1
[9]
  AC50: 1.65 µM (active)
[10]
  AC50: 2.59 µM (active)
[11]
  AC50: 62.1 µM (active)

## O=c1cc(CN2CCN(S(=O)(=O)c3cccc(Cl)c3)CC2)c2ccc(O)cc2o1
H9c2
  IC50: > 79 µM (inactive)

## Cc1csc(SCc2nc(O)c3c4c(sc3n2)CCC4)n1
H9c2
  IC50: 17.1 µM (active)

## CS(=O)(=O)Nc1ccc2c(c1)[C@H]1C[C@H](CC(=O)NCc3ccc(-c4ccccc4)cc3)O[C@H](CO)[C@H]1O2
[13]
  AC50: 39 µM (active)
